In data set [1] the target is Vascular endothelial growth factor receptor 2 (Homo sapiens) (UniProt P35968). The data set is described as follows: Induction of VEGFR2 degradation in human U87 cells at 10 uM incubated for 48 hrs in presence of 4-(4-(3-(4-chloro-3-(trifluoromethyl)phenyl)ureido)phenoxy)-N-(prop-2-yn-1-yl)picolinamide by Western blot analysis. The data set is classed as cell-based. On the technique in general: A western blot detects proteins with antibodies after separation by electrophoresis.
Chain of Vascular endothelial growth factor receptor 2 (Homo sapiens) (P35968 whole entry): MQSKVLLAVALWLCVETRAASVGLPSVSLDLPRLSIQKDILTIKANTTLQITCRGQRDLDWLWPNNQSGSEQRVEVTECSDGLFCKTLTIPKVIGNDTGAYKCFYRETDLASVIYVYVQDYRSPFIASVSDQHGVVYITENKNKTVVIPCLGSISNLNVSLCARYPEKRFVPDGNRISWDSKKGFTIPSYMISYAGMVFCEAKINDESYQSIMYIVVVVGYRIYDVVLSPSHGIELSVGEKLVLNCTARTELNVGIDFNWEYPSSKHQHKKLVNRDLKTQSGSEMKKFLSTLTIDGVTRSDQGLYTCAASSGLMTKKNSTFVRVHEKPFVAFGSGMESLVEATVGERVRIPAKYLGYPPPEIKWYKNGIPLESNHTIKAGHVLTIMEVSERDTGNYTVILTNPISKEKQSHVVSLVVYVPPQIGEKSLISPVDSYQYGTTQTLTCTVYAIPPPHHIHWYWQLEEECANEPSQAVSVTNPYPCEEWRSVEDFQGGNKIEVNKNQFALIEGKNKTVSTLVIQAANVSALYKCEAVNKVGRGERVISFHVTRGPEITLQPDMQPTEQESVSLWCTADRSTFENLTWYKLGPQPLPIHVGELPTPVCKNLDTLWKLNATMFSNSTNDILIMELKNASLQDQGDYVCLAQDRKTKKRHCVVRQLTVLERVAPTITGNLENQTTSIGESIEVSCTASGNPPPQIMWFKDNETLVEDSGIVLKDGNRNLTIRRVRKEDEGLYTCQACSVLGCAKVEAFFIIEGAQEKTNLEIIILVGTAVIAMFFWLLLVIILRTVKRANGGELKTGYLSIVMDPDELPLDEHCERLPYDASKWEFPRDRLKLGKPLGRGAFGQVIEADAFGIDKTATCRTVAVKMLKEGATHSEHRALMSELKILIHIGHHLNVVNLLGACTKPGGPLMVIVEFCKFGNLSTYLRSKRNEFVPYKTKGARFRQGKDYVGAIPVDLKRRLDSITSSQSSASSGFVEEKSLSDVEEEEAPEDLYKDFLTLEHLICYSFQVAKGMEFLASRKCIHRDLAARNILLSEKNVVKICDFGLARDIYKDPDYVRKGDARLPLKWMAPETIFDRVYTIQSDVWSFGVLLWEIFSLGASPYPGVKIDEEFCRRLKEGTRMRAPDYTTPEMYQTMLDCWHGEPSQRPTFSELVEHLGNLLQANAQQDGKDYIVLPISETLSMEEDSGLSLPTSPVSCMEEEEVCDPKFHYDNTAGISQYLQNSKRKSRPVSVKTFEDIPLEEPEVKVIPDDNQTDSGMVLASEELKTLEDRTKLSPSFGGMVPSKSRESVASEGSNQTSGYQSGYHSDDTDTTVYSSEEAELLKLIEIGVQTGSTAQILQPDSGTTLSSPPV

Data set [2] deals with U-87 MG. Briefly: Induction of apoptosis in human U87 cells assessed as necrotic cells at 0.1 uM incubated for 48 hrs in presence of 4-(4-(3-(4-chloro-3-(trifluoromethyl)phenyl)ureido)phenoxy)-N-(prop-2-yn-1-yl)picolinamide by Annexin V-FLTC/PI staining based flow cytometry (reference value: 0.60 %). The data set is classed as functional, U-87MG ATCC.
Data set [3] addresses Serine/threonine-protein kinase B-raf (Homo sapiens) (UniProt P15056). The data set is described as follows: Induction of BRAF degradation in human U87 cells at 10 uM incubated for 48 hrs in presence of 4-(4-(3-(4-chloro-3-(trifluoromethyl)phenyl)ureido)phenoxy)-N-(prop-2-yn-1-yl)picolinamide by Western blot analysis. The data set is classed as cell-based.
The target of data set [4] is T1, Ephrin type-B receptor 4 (Homo sapiens) (UniProt P54760).
T1 sequence (whole entry): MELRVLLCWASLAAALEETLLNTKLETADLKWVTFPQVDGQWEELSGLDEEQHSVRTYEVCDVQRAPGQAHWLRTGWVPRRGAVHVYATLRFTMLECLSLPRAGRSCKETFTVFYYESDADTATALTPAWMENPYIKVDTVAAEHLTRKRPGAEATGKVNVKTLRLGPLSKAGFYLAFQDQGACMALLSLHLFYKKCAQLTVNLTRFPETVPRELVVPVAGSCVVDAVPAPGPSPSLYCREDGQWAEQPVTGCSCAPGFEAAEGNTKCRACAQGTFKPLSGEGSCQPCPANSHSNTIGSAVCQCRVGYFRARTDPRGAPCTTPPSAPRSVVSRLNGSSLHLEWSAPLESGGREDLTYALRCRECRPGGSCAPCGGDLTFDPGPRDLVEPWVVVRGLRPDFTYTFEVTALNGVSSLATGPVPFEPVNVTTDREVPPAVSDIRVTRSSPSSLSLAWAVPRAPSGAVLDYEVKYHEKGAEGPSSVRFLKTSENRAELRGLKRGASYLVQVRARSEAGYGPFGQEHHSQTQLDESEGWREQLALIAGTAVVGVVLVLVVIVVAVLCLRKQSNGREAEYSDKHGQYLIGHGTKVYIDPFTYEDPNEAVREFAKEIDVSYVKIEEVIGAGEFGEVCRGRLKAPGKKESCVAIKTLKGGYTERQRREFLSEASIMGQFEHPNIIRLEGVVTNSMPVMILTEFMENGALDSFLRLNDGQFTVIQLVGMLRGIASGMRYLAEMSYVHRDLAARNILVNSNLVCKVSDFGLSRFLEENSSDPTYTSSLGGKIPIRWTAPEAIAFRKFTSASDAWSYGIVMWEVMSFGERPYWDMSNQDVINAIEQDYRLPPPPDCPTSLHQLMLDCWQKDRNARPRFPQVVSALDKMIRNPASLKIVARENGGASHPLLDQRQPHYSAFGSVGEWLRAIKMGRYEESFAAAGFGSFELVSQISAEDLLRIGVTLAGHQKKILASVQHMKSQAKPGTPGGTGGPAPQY
Briefly: Induction of EphB4 degradation in human U87 cells at 10 uM incubated for 48 hrs by Western blot analysis. The data set is classed as cell-based.

A short description of data set [5]: Stability of compound in PBS by HPLC analysis. The data set is classed as physicochemical. The settings on record: buffer.
Data set [6] relates to U-87 MG. The data set is described as follows: Induction of apoptosis in human U87 cells assessed as viable cells at 10 uM incubated for 48 hrs in presence of 4-(4-(3-(4-chloro-3-(trifluoromethyl)phenyl)ureido)phenoxy)-N-(prop-2-yn-1-yl)picolinamide by Annexin V-FLTC/PI staining based flow cytometry (reference value: 86.74 %). The settings on record: read-out: Activity. The data set is classed as functional, U-87MG ATCC. (In general: Flow cytometry measures light scatter and fluorescence of single cells or particles in a stream.)

Data set [7] has as its target Serine/threonine-protein kinase B-raf (Homo sapiens) (UniProt P15056). Briefly: Induction of BRAF degradation in human U87 cells at 10 uM incubated for 48 hrs by Western blot analysis. The data set is classed as cell-based.
The nature of data set [8]: Stability of compound in DMEM medium by HPLC analysis. The data set is classed as physicochemical.
The target in data set [9] is Vascular endothelial growth factor receptor 2 (Homo sapiens) (UniProt P35968). The data set is described as follows: Induction of VEGFR2 degradation in human U87 cells at 2 uM incubated for 48 hrs in presence of (2S,4R)-1-((S)-2-(5-azidopentanamido)-3,3-dimethylbutanoyl)-4-hydroxy-N-(4-(4-methylthiazol-5-yl)benzyl)pyrrolidine-2-carboxamide by Western blot analysis. The data set is classed as cell-based.

Data set [10] has as its system U-87 MG. Briefly: Antiproliferative activity against human U87 cells incubated for 48 hrs in presence of (2S,4R)-1-((S)-2-(5-azidopentanamido)-3,3-dimethylbutanoyl)-4-hydroxy-N-(4-(4-methylthiazol-5-yl)benzyl)pyrrolidine-2-carboxamide by MTT assay. The data set is classed as functional, cell-based, U-87MG ATCC. In general terms: Tetrazolium dyes change colour on reduction, which living cells bring about.

Data set [11] has as its system U-87 MG. Briefly: Induction of apoptosis in human U87 cells assessed as early apoptotic cells at 1 uM incubated for 48 hrs in presence of (2S,4R)-1-((S)-2-(5-azidopentanamido)-3,3-dimethylbutanoyl)-4-hydroxy-N-(4-(4-methylthiazol-5-yl)benzyl)pyrrolidine-2-carboxamide by Annexin V-FLTC/PI staining based flow cytometry (reference value: 8.95 %). The data set is classed as functional, U-87MG ATCC.

Data set [12] concerns HEK293. Briefly: Cytotoxicity against HEK293 cells at low concentration incubated for 48 hrs in presence of (2S,4R)-1-((S)-2-(5-azidopentanamido)-3,3-dimethylbutanoyl)-4-hydroxy-N-(4-(4-methylthiazol-5-yl)benzyl)pyrrolidine-2-carboxamide by MTT assay. The data set is classed as toxicity, cell-based. Conditions: human, hek293, 48 h.
The test system of data set [13] is U-87 MG. The data set is described as follows: Induction of apoptosis in human U87 cells assessed as necrotic cells at 10 uM incubated for 48 hrs in presence of (2S,4R)-1-((S)-2-(5-azidopentanamido)-3,3-dimethylbutanoyl)-4-hydroxy-N-(4-(4-methylthiazol-5-yl)benzyl)pyrrolidine-2-carboxamide by Annexin V-FLTC/PI staining based flow cytometry (reference value: 0.60 %). The data set is classed as functional, U-87MG ATCC.

The subject of data set [14] is U-87 MG. Briefly: Induction of apoptosis in human U87 cells assessed as early apoptotic cells at 5 uM incubated for 48 hrs in presence of (2S,4R)-1-((S)-2-(5-azidopentanamido)-3,3-dimethylbutanoyl)-4-hydroxy-N-(4-(4-methylthiazol-5-yl)benzyl)pyrrolidine-2-carboxamide by Annexin V-FLTC/PI staining based flow cytometry (reference value: 8.95 %). The data set is classed as functional, U-87MG ATCC.

Data set [15] concerns the target T1, Ephrin type-B receptor 4 (Homo sapiens). The data set is described as follows: Induction of EphB4 degradation in human U87 cells at 2 uM incubated for 48 hrs in presence of (2S,4R)-1-((S)-2-(5-azidopentanamido)-3,3-dimethylbutanoyl)-4-hydroxy-N-(4-(4-methylthiazol-5-yl)benzyl)pyrrolidine-2-carboxamide by Western blot analysis. The data set is classed as cell-based.

For data set [16] the target is unchanged. The data set is described as follows: Induction of EphB4 degradation in human U87 cells at 10 uM incubated for 48 hrs in presence of 4-azido-N-(2-(2,6-dioxopiperidin-3-yl)-1,3-dioxoisoindolin-4-yl)butanamide by Western blot analysis. The data set is classed as cell-based.
In data set [17] the test system is HEK293. Briefly: Cytotoxicity against HEK293 cells at high concentration incubated for 48 hrs in presence of 4-azido-N-(2-(2,6-dioxopiperidin-3-yl)-1,3-dioxoisoindolin-4-yl)butanamide by MTT assay. The data set is classed as toxicity, cell-based. The settings on record: human, hek293, 48 h.
The test system of data set [18] is HEK293. The data set is described as follows: Cytotoxicity against HEK293 cells at high concentration incubated for 48 hrs in presence of (2S,4R)-1-((S)-2-(5-azidopentanamido)-3,3-dimethylbutanoyl)-4-hydroxy-N-(4-(4-methylthiazol-5-yl)benzyl)pyrrolidine-2-carboxamide by MTT assay. The data set is classed as toxicity, cell-based. The settings on record: human, hek293, 48 h.

Molecules are shown by their SMILES. Active and inactive are the calls of the source. No cut-off for these calls is given here.

Chain of Serine/threonine-protein kinase B-raf (Homo sapiens) (P15056 whole entry): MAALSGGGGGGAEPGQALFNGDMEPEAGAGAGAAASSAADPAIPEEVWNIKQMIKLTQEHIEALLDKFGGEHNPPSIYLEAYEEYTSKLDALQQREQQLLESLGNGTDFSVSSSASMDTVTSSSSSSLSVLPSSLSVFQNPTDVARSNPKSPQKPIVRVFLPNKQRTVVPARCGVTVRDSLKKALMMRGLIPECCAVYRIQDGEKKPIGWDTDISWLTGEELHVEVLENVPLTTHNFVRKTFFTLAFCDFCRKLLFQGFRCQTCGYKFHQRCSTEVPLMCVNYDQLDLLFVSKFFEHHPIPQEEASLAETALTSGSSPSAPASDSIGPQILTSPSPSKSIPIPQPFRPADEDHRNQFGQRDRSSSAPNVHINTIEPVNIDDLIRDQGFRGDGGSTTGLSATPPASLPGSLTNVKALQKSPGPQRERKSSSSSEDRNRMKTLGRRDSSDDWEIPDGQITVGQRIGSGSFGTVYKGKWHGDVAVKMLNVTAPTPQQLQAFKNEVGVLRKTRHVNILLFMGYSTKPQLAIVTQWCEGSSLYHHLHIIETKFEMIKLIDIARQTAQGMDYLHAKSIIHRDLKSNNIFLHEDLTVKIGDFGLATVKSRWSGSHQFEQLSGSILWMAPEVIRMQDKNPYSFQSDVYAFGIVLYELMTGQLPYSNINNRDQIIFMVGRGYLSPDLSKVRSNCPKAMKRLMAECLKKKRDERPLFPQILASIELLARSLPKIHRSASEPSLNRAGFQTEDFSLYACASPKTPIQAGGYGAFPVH

For the molecule `[N-]=[N+]=NCCCC(=O)Nc1cccc2c1C(=O)N(C1CCC(=O)NC1=O)C2=O` (stereo not drawn), the result in data set [1], in data set [3], in data set [4] and in data set [7] was Active. Also, in the data set on U-87 MG [2], the Activity came to 1.02%. Moreover, the Stability entry in data set [5] and in data set [8] was “Unstable” throughout. Moreover, the viability at 10 µM in the data set on U-87 MG [6] amounted to 1.74%.

As to `C#CCNC(=O)c1cc(Oc2ccc(NC(=O)Nc3ccc(Cl)c(C(F)(F)F)c3)cc2)ccn1`, the outcome in [9], in data set [15] and in [16] was Active. For the same molecule, in the data set on U-87 MG [10], the IC50 – broadly, the concentration at which inhibition is half-maximal – came out at 16 µM. Also, the Activity in the data set on U-87 MG [11] was 11.69%; in the data set on HEK293 [12] it was “Non-Toxic”; with U-87 MG [13] it was 25.6%; in the data set with U-87 MG [14], 0.05%; in the data set with HEK293 [17], “Toxic”; with HEK293 [18], “Toxic”.
